This series deals with mammalian L-929 cells. The class given is cell-based. As to the method:
CCIC Huatongwei International Inspection (Suzhou) Co., Ltd. was entrusted to test the potential cytotoxic effect of a recombinant collagen M4 using mammalian L-929 cells cultured in vitro in accordance with method requirements of GB/T16886.5-2017. A test sample and a control sample were placed in a MEM medium including a 10% fetal bovine serum, and extracted in a 37°C incubator for 24 h. After the end of extraction, a cell medium is removed from ta 96-well plate (10^4 cells/well) cultured for 24 h, replaced with the corresponding extraction liquid, and cultured in a cell culture incubator (37°C, 5% CO2, humidity >90% ) for 24 h. After the end of culture, the morphology and lysis of a cell was observed under a microscope. The cytotoxicity value of a test sample was measured using a MTT method. […] After incubation for 24 h, the cell morphology of the extraction liquid with a 100% concentration of the test sample was basically intact, and a cell viability value was 83.6%. The recombinant collagen M4 had no potential cytotoxic effect under the cytotoxicity test conditions of a MTT method.

Each structure is given as a SMILES string.

With `CCN(CC)C(=S)[S-].CCN(CC)C(=S)[S-].[Zn+2]` [ZDEC], the cytotoxic effect result is on record as “severe cytotoxic reaction”.

The record behind these values is EP4567044A1, “HIGH-STABILITY RECOMBINANT COLLAGEN, AND CONSTRUCTION METHOD THEREFOR AND USE THEREOF” (Jiangsu Trautec Medical Technology Co., Ltd., priority 2022, dated 2024).
